Measurements as given in ChEMBL document CHEMBL3046831, “Novel PCU cage diol peptides as potential targets against wild-type CSA HIV-1 protease: synthesis, biological screening and molecular modelling studies” (Med Chem Res, 2013).

Assays:
[1] = target: T1, Protease (Human immunodeficiency virus 1, UniProt Q9YQ12); assay: Inhibition of wild type C-South African Human immunodeficiency virus 1 protease using chromogenic peptide H-1048 as substrate by UV spectrophotometric analysis; set-up: species or system C-SA
[2] = target: T1, Protease; assay: Inhibition of wild type C-South African Human immunodeficiency virus 1 protease; set-up: species or system C-SA
[3] = target: T1, Protease; assay: Inhibition of Human immunodeficiency virus 1 protease

T1 sequence (Q9YQ12 whole entry): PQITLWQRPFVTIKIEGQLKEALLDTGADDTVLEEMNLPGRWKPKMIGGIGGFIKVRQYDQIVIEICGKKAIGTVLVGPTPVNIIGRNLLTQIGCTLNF

Row | Compound | IC50 [1] | other results
1 | O=C(O)[C@@H]1CCCN1C(=O)CC1(O)C2C3CC4C5C3C1C5C(O)(CC(=O)N1CCC[C@H]1C(=O)O)C42 (some centres not stated) | > 60 µM | –
2 | CC(C)[C@H](NC12OC3(O)C4C5CC(C6C5C3C61)C42)C(=O)N[C@@H](C)C(=O)O (some centres not stated) | – | IC50 [2]: 0.6 µM
3 | O=C(CC1(O)C2C3CC4C5C3C1C5C(O)(CC(=O)N[C@@H](Cc1c[nH]cn1)C(=O)O)C42)N[C@@H](Cc1c[nH]cn1)C(=O)O (some centres not stated) | > 60 µM | –
4 | O=C(CC1(O)C2C3CC4C5C3C1C5C(O)(CC(=O)N[C@@H](Cc1ccccc1)C(=O)O)C42)N[C@@H](Cc1ccccc1)C(=O)O (some centres not stated) | > 60 µM | –
5 | NC(=O)[C@@H]1CCCN1C(=O)CC1(O)C2C3CC4C5C3C1C5C(O)(CC(=O)N1CCC[C@H]1C(N)=O)C42 (some centres not stated) | > 60 µM | –
6 | O=C(O)CN(Cc1ccccc1)C(=O)CC1(O)C2C3CC4C5C3C1C5C(O)(CC(=O)N(CC(=O)O)Cc1ccccc1)C42 (configuration not stated) | > 60 µM | –
7 | Nc1cccc(CN2C(=O)N(Cc3cccc(N)c3)[C@H](Cc3ccccc3)[C@H](O)[C@@H](O)[C@H]2Cc2ccccc2)c1 [MOZENAVIR] | – | Ki [3]: 0.0003 µM
8 | CC[C@H](C)[C@H](NC(=O)[C@H](C)NC(=O)[C@H](CCC(=O)O)NC12NC(=O)C3(O)C4C5CC(C6C5C3C61)C42)C(=O)N[C@@H](CO)C(=O)O (some centres not stated) | – | IC50 [2]: 0.078 µM

More lines, in order of falling IC50 [1], values ahead:

Row | IC50 [1] | Compound | other results
9 | 10 µM | CC(C)[C@H](NC(=O)CC1(O)C2C3CC4C5C3C1C5C(O)(CC(=O)N[C@H](C(=O)O)C(C)C)C42)C(=O)O (some centres not stated) | –
10 | 10 µM | O=C(CC1(O)C2C3CC4C5C3C1C5C(O)(CC(=O)N[C@@H](Cc1ccc(O)cc1)C(=O)O)C42)N[C@@H](Cc1ccc(O)cc1)C(=O)O (some centres not stated) | –
11 | 5 µM | O=C(CC1(O)C2C3CC4C5C3C1C5C(O)(CC(=O)N[C@H](C(=O)O)c1ccccc1)C42)N[C@H](C(=O)O)c1ccccc1 (some centres not stated) | –
12 | 5 µM | O=C(CC1(O)C2C3CC4C5C3C1C5C(O)(CC(=O)N[C@@H](Cc1c[nH]c3ccccc13)C(=O)O)C42)N[C@@H](Cc1c[nH]c2ccccc12)C(=O)O (some centres not stated) | –
